Test results reported in US9040591B2, “Methods and compositions comprising at least one α3 βA4 nAChR antagonist or pharmaceutically acceptable salt thereof” (AGI Therapeutics Public Limited Company, priority 2003, dated 2015).
Where a name gives a salt, the structure may show the parent alone.

Tests used:
[1] = Pharmacokinetics of oral conventional formulation in adults (Young et al. 2001); format: in vivo, human adults; details: expected
Method: Bear et al., Am. J. Physiol., 186, 180-86 (1956). […] Young et al., Clinical Therapeutics, 23(4) (2001). […] The typical dose used for treating hypertensive subjects is about 25 mg/day, and is dosed using conventional formulations.

[2] = Clinical study of transdermal mecamylamine patches in smokers, treatment emergent effects; format: in vivo, human; details: for Side effect: Constipation: transdermal patches of Example 1, smokers but otherwise healthy subjects
Source text: The mecamylamine transdermal formulation is a transdermal patch that contains mecamylamine blended with an acrylic adhesive that is coated onto a printed backing to produce transdermal patches.

[3] = Second clinical trial, treatment emergent effects associated with ganglion blocking activity; format: in vivo, human
Method: In a second clinical trial, the frequency of treatment emergent effects typically associated with “ganglion blocking” activity was assessed. The following treatment emergent effects were found: […]

[4] = system: patients with dominant chronic diarrhea symptoms (functional diarrhea); experiment: Example 3 randomized, double-blind, placebo-controlled forced dose escalation study in Functional Diarrhea; format: in vivo, human; details: for number of patients showing improvement in stool consistency / percent of patients showing improvement in stool consistency: modified per-protocol population
Source text: Eight-two patients (both male and female) meeting ROME II criteria (modified) for Functional Diarrhea were randomized in the study. […] For example, the following table summarizes the number of patients showing “improvement” in stool consistency. Prior to treatment, patients were to be experiencing >50% of the time, a mushy/watery stool consistency in at least 75% of their daily stools. “Improvement” represents a patient experiencing <50% of the time, a mushy/watery stool consistency in at least 75% of daily stools.

[5] = 2.5 mg dose, conventional formulation, adults; cited from earlier work
[6] = transdermal patches of Example 1, smokers

## CNC1(C)C2CCC(C2)C1(C)C (stereo not drawn) [Mecamylamine, N-2,3,3-tetramethylbicyclo-[2.2.1]heptan-2-amine]
[1]
  24 hour plasma concentration level as % of peak plasma concentration: less than 25%
  time for which about 50% of the peak plasma concentration is maintained: about 14 hours
[2]; [6]
  Side effect: Application: 25%
  Side effect: Asthenia: 14%
  Side effect: Dizziness: 17%
  Side effect: Headache: 36%
  Side effect: Insomnia: 14%
  Side effect: Nausea: 15%
  Side effect: Rash: 13%
[2]
  Side effect: Constipation: 42%
[2]; listed as mecamylamine
  Side effect: Constipation: 42%
[3]
  Side effect: Cardiac Disorder: 1.3%
  Side effect: Constipation: 28.9%
  Side effect: Dizziness: 4.0%
  Side effect: Dry Mouth: 3.4%
  Side effect: Eye: 0.7%
  Side effect: Gastrointestinal: 4.36%
  Side effect: Nausea: 5.4%
  Side effect: Urinary Retention: 0.7%
[4]; 12-week study
  overall incidence of adverse events versus placebo: similar
[4]; 12-week study, FIGS. 1 and 2
  changes in blood pressure: no clinically significant changes in blood pressure
[4]; Entire Study
  number of patients showing improvement in stool consistency: 8/18
  percent of patients showing improvement in stool consistency: 44.4%
[4]; Week 4 (2 mg/day)
  number of patients showing improvement in stool consistency: 8/18
  percent of patients showing improvement in stool consistency: 44.4%
[4]; Week 8 (4 mg/day)
  number of patients showing improvement in stool consistency: 8/18
  percent of patients showing improvement in stool consistency: 44.4%
[4]; Week 12 (6 mg/day)
  number of patients showing improvement in stool consistency: 9/18
  percent of patients showing improvement in stool consistency: 50.0%
[4]; intent-to-treat analysis, entire 12 weeks of dose-escalation therapy
  primary and secondary endpoints versus placebo: failed to show any statistically significant difference from placebo
[4]; intent-to-treat analysis, week 4 (2 mg/day)
  stool consistency versus placebo: improvement in stool consistency
[4]; modified per-protocol population (n=35), entire dose-escalation and each dose treatment phase
  stool consistency versus placebo: significant improvements in stool consistency

## CNC1(C)C2CCC(C2)C1(C)C (stereo not drawn) [mecamylamine hydrochloride, N-2,3,3-tetramethylbicyclo[2.2.1]heptan-2-amine hydrochloride]
[5]
  maximum plasma concentration (Cmax): about 7.89 ng/mL
